{"source": "patent US12228580B2", "about": "“Methods of assigning a COVID pathological type based on a cytokine/chemokine panel” (IncellDx, Inc., priority 2020, dated 2025)", "key": {"[1]": {"tested_on": "Long Hauler patients suffering from chronic COVID-19", "experiment": "Treatment of Long Hauler patients for chronic COVID-19: symptoms", "type": "in vivo, human", "settings": "300 mg twice a day for 2 weeks", "method": "(§1) Long Hauler patients suffering from chronic COVID-19 were treated for 2 weeks with 300 mg of Maraviroc (SELZENTRY®) twice a day. […] The results are provided below, which provide patient profiles and LHI (long haul index) as determined using the panel described in the preceding example. LHI is also referred to as “Long Hauler Score” or S1, where S1=(IFN-gamma+IL-2)/CCL4-MIP-1β."}, "[2]": {"tested_on": "plasma cytokines/chemokines of Chronic COVID patients", "experiment": "14-plex cytokine/chemokine panel in plasma and long hauler index (S1) of treated Chronic COVID patients", "type": "in vivo, human", "settings": "300 mg twice a day for 2 weeks; for S1 (long haul index, LHI; (IFN-gamma+IL-2)/CCL4-MIP-1β): Normals 0.1", "from_the_text": "Fresh plasma was used for cytokine quantification using a customized 14-plex bead based flow cytometric assay (IncelIKINE, IncellDx, Inc) on a CytoFlex flow cytometer as previously described using the following analytes: ‘TNF-α’, ‘IL-4’, ‘IL-13’, ‘IL-2’, ‘GM-CSF’, ‘sCD40L’, ‘CCL5 (RANTES)’, ‘CCL3 (MIP-1α)’, ‘IL-6’, ‘IL-10’, ‘IFN-γ’, ‘VEGF’, ‘IL-8’, and ‘CCL4 (MIP-1β) (Patterson et al., “CCR5 inhibition in Critical COVID-19 Patients Decreases Inflammatory Cytokines, Increases CD8 T-Cells, and Decreases SARS-CoV2 RNA in Plasma by Day 14”, Int J Infect Dis (2020) doi: 10.1016/j.ijid.2020.10.101). For each patient sample, 25 μL of plasma was used in each well of a 96-well plate. Standard curves with serial 6-point dilutions of antigen were run on each plate for each cytokine. Raw data was analyzed using LegendPlex software (Biolegend, Inc San Diego Calif.). Samples were run in duplicate.\nas §1"}}, "data": [{"substance": "Maraviroc", "values": [{"measurement": "symptoms in long haulers", "setting": "[1]", "result": "alleviated or completely resolved symptoms"}, {"measurement": "CCL5/RANTES in Chronic COVID patients successfully treated", "setting": "[2]; Chronic COVID patients", "result": "Decreased CCL5/RANTES in Chronic COVID patients successfully treated"}, {"measurement": "long hauler Indices (LHI, S1)", "setting": "[2]; Long Hauler patients", "result": "reduced"}, {"measurement": "S1 (long haul index, LHI; (IFN-gamma+IL-2)/CCL4-MIP-1β)", "setting": "[2]; patient two, second sample (AB2), first sample AB1 4.0", "result": 0.3}, {"measurement": "GM-CSF", "setting": "[2]; patient two, second sample (AB2), first sample AB1 6.02", "result": 15.09, "unit": "pg/mL"}, {"measurement": "TNF-α", "setting": "[2]; patient two, second sample (AB2), first sample AB1 7.75", "result": 17.13, "unit": "pg/mL"}, {"measurement": "IL-10", "setting": "[2]; patient two, second sample (AB2), first sample AB1 7.90", "result": "<0.61", "unit": "pg/mL"}, {"measurement": "IL-6", "setting": "[2]; patient two, second sample (AB2), first sample AB1 10.88", "result": "<0.6", "unit": "pg/mL"}, {"measurement": "IL-4", "setting": "[2]; patient two, second sample (AB2), first sample AB1 11.06", "result": 4.12, "unit": "pg/mL"}, {"measurement": "IL-2", "setting": "[2]; patient two, second sample (AB2), first sample AB1 12.57", "result": 2.15, "unit": "pg/mL"}, {"measurement": "CCL4 (MIP-1β)", "setting": "[2]; patient two, second sample (AB2), first sample AB1 15.52", "result": 8.43, "unit": "pg/mL"}, {"measurement": "IFN-γ", "setting": "[2]; patient two, second sample (AB2), first sample AB1 48.78", "result": "<0.92", "unit": "pg/mL"}, {"measurement": "VEGF", "setting": "[2]; patient two, second sample (AB2), first sample AB1 60.41", "result": 22.98, "unit": "pg/mL"}, {"measurement": "CCL3 (MIP-1α)", "setting": "[2]; patient two, second sample (AB2), first sample AB1 87.65", "result": "<1.22", "unit": "pg/mL"}, {"measurement": "CCL5 (RANTES)", "setting": "[2]; patient two, second sample (AB2), first sample AB1 13082.39", "result": 12261.36, "unit": "pg/mL"}, {"measurement": "sCD40L", "setting": "[2]; patient two, second sample (AB2), first sample AB1 13488.", "result": "12631.", "unit": "pg/ml"}, {"measurement": "IL-13", "setting": "[2]; patient two, second sample (AB2), first sample AB1 <3.07", "result": 4.35, "unit": "pg/mL"}, {"measurement": "IL-8", "setting": "[2]; patient two, second sample (AB2), first sample AB1 <15.74", "result": 18.37, "unit": "pg/mL"}, {"measurement": "CCL4 (MIP-1β)", "setting": "[2]; unlabelled patient, second line, first line 3.62", "result": 9.79, "unit": "pg/mL"}, {"measurement": "IL-13", "setting": "[2]; unlabelled patient, second line, first line 5.56", "result": 4.22, "unit": "pg/mL"}, {"measurement": "GM-CSF", "setting": "[2]; unlabelled patient, second line, first line 10.40", "result": 9.07, "unit": "pg/mL"}, {"measurement": "S1 (long haul index, LHI; (IFN-gamma+IL-2)/CCL4-MIP-1β)", "setting": "[2]; unlabelled patient, second line, first line 11.4", "result": 1.3}, {"measurement": "TNF-α", "setting": "[2]; unlabelled patient, second line, first line 17.86", "result": 17.50, "unit": "pg/mL"}, {"measurement": "IL-2", "setting": "[2]; unlabelled patient, second line, first line 33.94", "result": 4.89, "unit": "pg/mL"}, {"measurement": "VEGF", "setting": "[2]; unlabelled patient, second line, first line 39.00", "result": 31.62, "unit": "pg/mL"}, {"measurement": "sCD40L", "setting": "[2]; unlabelled patient, second line, first line 8980.", "result": "41374.", "unit": "pg/ml"}, {"measurement": "CCL5 (RANTES)", "setting": "[2]; unlabelled patient, second line, first line 14334.86", "result": 10011.91, "unit": "pg/mL"}, {"measurement": "IL-10", "setting": "[2]; unlabelled patient, second line, first line <1.20", "result": "<2.49", "unit": "pg/mL"}, {"measurement": "IL-8", "setting": "[2]; unlabelled patient, second line, first line <3.82", "result": "<9.98", "unit": "pg/mL"}, {"measurement": "IL-6", "setting": "[2]; unlabelled patient, second line, first line <4.66", "result": "<3.60", "unit": "pg/mL"}, {"measurement": "IL-4", "setting": "[2]; unlabelled patient, second line, first line <5.02", "result": "<1.22", "unit": "pg/mL"}, {"measurement": "IFN-γ", "setting": "[2]; unlabelled patient, second line, first line <7.30", "result": "<7.77", "unit": "pg/mL"}, {"measurement": "CCL3 (MIP-1α)", "setting": "[2]; unlabelled patient, second line, first line <34.82", "result": "<45.08", "unit": "pg/mL"}]}]}
